# Experimental data: patent US6048887A, “Substituted pyrroles” (Hoffmann-La Roche Inc., priority 1999, dated 2000)
# Experiments:
# Format in all cases: cell-based
# MDA-MB-435 = experiment: Antiproliferative Activity In Cell Line MDA-MB-435 (MTT); conditions: Homo sapiens, average of at least three separate experiments
# Method: (§1) The estrogen receptor negative epithelial breast carcinoma line (MDA-MB-435) was purchased from American Type Cell Culture Collection (ATCC; Rockville, Md.) and was grown in the medium recommended by ATCC. For analysis of the effect of the test compounds on growth of these cells, the cells were plated at 2000 cells per well in a 96-well tissue culture plate ("test plate"), and were incubated overnight at 37° C. with 5% CO2. The next day, the test compounds were dissolved in 100% dimethyl sulfoxide (DMSO) to yield a 10 mM stock solution. Each compound was diluted with sterile distilled water to 1 mM and then was added to triplicate wells of a 96-well "master plate" containing medium in a sufficient quantity to yield a final concentration of 40 μM. The compounds were serially diluted in medium in the "master plate." One-fourth final volume of the diluted compounds was transferred to duplicate "test plates." DMSO was added to a row of "control cells" such that; the final concentration of DMSO in each well was 0.1%. The "test plates" were returned to the incubator, and 3 days post addition of test compound, one "test plate" was analyzed as described below. Similarly, 5 days after addition of test compound, the second "test plate" also was analyzed as described below.
# (§2) 3-(4,5-dimethylthiazole-2-yl)-2,5-diphenyl-2H-tetrazolium bromide (thiazolyl blue; MTT) was added to each well to yield a final concentration of 1 mg/ml. The plate was then incubated at 37° C. for 3 hours. The MTT-containing medium was then removed and 50 μl 100% ethanol was added to each well to dissolve the resulting formazan metabolite. […] Absorbencies were read in a microtiter plate reader (Molecular Dynamics) at a wavelength of 570 nm with a 650 nm reference. Percent inhibition was calculated by subtracting the blank from all wells, then subtracting the division of the average absorbance of each test triplicate by the average of the controls from 1.00. Inhibitory concentrations (IC50 and IC90) were determined from the linear regression of a plot of the logarithm of the concentration versus the percent inhibition.
# HCT-116 = experiment: Antiproliferative Activity In Cell Line HCT-116 (MTT); conditions: Homo sapiens, 96 h, 4 days post addition, average of at least three separate experiments
# Method: [The procedure below names another cell line; the source says it served here with some conditions changed.] as §1
# as §2, with “inhibition. […]” for “inhibition.”
# SW480 = experiment: Antiproliferative Activity In Cell Line SW480 (MTT); conditions: Homo sapiens, 144 h, 6 days post addition, average of at least three separate experiments
# Method: [The procedure below names another cell line; the source says it served here with some conditions changed.] as §1
# as §2, with “inhibition. […]” for “inhibition.”
# MDA-MB-435 cells = experiment: Effect Of Test Compounds On Cell Cycle (propidium iodide, FACS); conditions: for % Of Cells In Each Cell Cycle Phase: G1 / % Of Cells In Each Cell Cycle Phase: G2/M / % Of Cells In Each Cell Cycle Phase: S: day 1 post addition; for effect on cell cycle (in words): statement in words, summarizing Tables I-IV
# Method: For analysis of the effect of the compounds on cell cycle progression, MDA-MB-435 cells (ATCC; Rockville, Md.) were plated at 1×10^6 cells/10 mls per 10 cm dish in the following growth medium: RPMI 1640+10% Heat-Inactivated Fetal Bovine Serum, 2 mM L-glutamine and 50 U/ml pen-strep (all from GIBCO/BRL, Gaithersburg, Md.). The cells were incubated overnight at 37° C. with 5% CO2. The next day, 10 μl of each of the compounds to be tested, in a 100% DMSO solution, was added to individual dishes to obtain /1000× final concentration of the stock solution. In addition, 10 μl 100% DMSO was added to a control dish. The final concentration of DMSO in all plates, including the control, was 0.1%. The plates were returned to the incubator.
# Thereafter, at various periods of time, the medium in each plate was removed to a 50 ml centrifuge tube. The cell layer remaining in the dish was then washed with 5 ml of phosphate buffered saline (PBS; GIBCO/BRL). The PBS was removed and combined with the medium in the appropriate tube. The cells were trypsinized for 5 minutes at 37° C., and the solution was collected and combined with the medium and PBS in the appropriate tubes. The tubes were then centrifuged for 5 minutes at 1200 rpm. The cells were fixed by removing the supernatant, tapping the tube to distribute the pellet, then adding 5 mls of cold 70% ethanol while vortexing gently. The cells were then stored at -20° C. for>24 hours.
# The cell-containing tubes were taken out of freezer and allowed to sit at room temperature for 20-30 minutes. The tubes were centrifuged at 3000 rpm for 5 minutes. The supernatant was removed, the pellets were washed with 5 ml PBS, and the tubes were centrifuged as above. Subsequently, the supernatant was removed, and the pellet was resuspended in 0.5 ml PBS. Thereafter, 0.5 ml RNAse A (1 mg/ml in PBS) was added to each tube, and the tubes were incubated at 37° C. for 15 minutes. 100 μl propidium iodide (Sigma, St. Louis, Mo.) (1 mg/ml in PBS) was added to each tube, and the tubes were then incubated at room temperature for 2-3 minutes. Each resulting solution was passed through a filter cap tube (Becton Dickinson, San Jose, Calif., #2235).
# Samples were read in a FACSort machine (Becton-Dickinson) using the manufacturer's CellQUEST program, and analyzed with the manufacturer is ModFIT software. This measurement provides an indication of the percent of cells in each of the following phases: G0/G1, DNA synthesis (S) and G2/M phases.
# The results of a cell cycle progression experiment analyzed at day 1 post addition of test compounds I, II and III are summarized below in Table IV.
IC50 (MDA-MB-435) [nM],IC50 (HCT-116) [nM],IC50 (SW480) [nM],Compound,% Of Cells In Each Cell Cycle Phase: G1 (MDA-MB-435 cells; 0.03 μM) [%],% Of Cells In Each Cell Cycle Phase: G2/M (MDA-MB-435 cells; 0.03 μM) [%],% Of Cells In Each Cell Cycle Phase: S (MDA-MB-435 cells; 0.03 μM) [%],% Of Cells In Each Cell Cycle Phase: G1 (MDA-MB-435 cells; 0.1 μM) [%],% Of Cells In Each Cell Cycle Phase: G2/M (MDA-MB-435 cells; 0.1 μM) [%],% Of Cells In Each Cell Cycle Phase: S (MDA-MB-435 cells; 0.1 μM) [%],effect on cell cycle (in words) (MDA-MB-435 cells),also measured
30,170,200,"Cn1cc(C2=C(c3c[nH]c4ccccc34)C(=O)NC2=O)c2ccc([N+](=O)[O-])cc21 [Compound I, 3-(1H-Indol-3-yl)-4-(1-methyl-6-nitro-1H-indol-3-yl)-pyrrole-2,5-dione]",45.30,20.03,34.67,8.27,66.52,25.21,cause an accumulation of cells in the G2/m phase of the cell cycle,% Of Cells In Each Cell Cycle Phase: G1 (MDA-MB-435 cells; 0.01 μM): 44.95%; % Of Cells In Each Cell Cycle Phase: G2/M (MDA-MB-435 cells; 0.01 μM): 14.00%; % Of Cells In Each Cell Cycle Phase: S (MDA-MB-435 cells; 0.01 μM): 41.04%
50,230,220,"Cn1cc(C2=C(c3cn(CO)c4ccccc34)C(=O)NC2=O)c2ccc([N+](=O)[O-])cc21 [Compound II, 3-(1-Hydroxymethyl-1H-indol-3-yl)-4-(1-methyl-6-nitro-1H-indol-3-yl)-pyrrole-2,5-dione]",45.45,16.50,38.06,15.54,60.40,24.06,cause an accumulation of cells in the G2/m phase of the cell cycle,% Of Cells In Each Cell Cycle Phase: G1 (MDA-MB-435 cells; 0.3 μM): 1.11%; % Of Cells In Each Cell Cycle Phase: G2/M (MDA-MB-435 cells; 0.3 μM): 73.90%; % Of Cells In Each Cell Cycle Phase: S (MDA-MB-435 cells; 0.3 μM): 24.99%
600,1660,1860,"Cn1cc(C2=C(c3c[nH]c4cc([N+](=O)[O-])ccc34)C(=O)NC2=O)c2ccccc21 [Compound III, 3-(1-Methyl-1H-indol-3-yl)-4-(6-nitro-1H-indol-3-yl)-pyrrole-2,5-dione]",,,,,,,cause an accumulation of cells in the G2/m phase of the cell cycle,% Of Cells In Each Cell Cycle Phase: G1 (MDA-MB-435 cells; 1 μM): 27.21%; % Of Cells In Each Cell Cycle Phase: G2/M (MDA-MB-435 cells; 1 μM): 42.60%; % Of Cells In Each Cell Cycle Phase: S (MDA-MB-435 cells; 1 μM): 30.19%; % Of Cells In Each Cell Cycle Phase: G1 (MDA-MB-435 cells; 3 μM): 3.26%; % Of Cells In Each Cell Cycle Phase: G2/M (MDA-MB-435 cells; 3 μM): 47.99%; % Of Cells In Each Cell Cycle Phase: S (MDA-MB-435 cells; 3 μM): 48.75%; % Of Cells In Each Cell Cycle Phase: G1 (MDA-MB-435 cells; 10 μM): 10.41%; % Of Cells In Each Cell Cycle Phase: G2/M (MDA-MB-435 cells; 10 μM): 54.34%; % Of Cells In Each Cell Cycle Phase: S (MDA-MB-435 cells; 10 μM): 35.25%
